Data taken from patent US20220213135A1, “DERIVATIVES OF GLYCERO-MANNO-HEPTOSE PHOSPHATE AND THEIR USE IN MODULATING AN IMMUNE RESPONSE” (Shanghai Yao Yuan Biotechnology Co., Ltd., priority 2019, published 2022).

How the values were obtained:
[1] = tested on: primary mouse hepatocytes (C57/b6); experiment: CCL2 and CCL7 gene expression by qPCR in primary mouse hepatocytes treated for 4 hours; assay type: cell-based; settings: for CCL7 gene expression, fold change compared to no treatment (PBS) control: Compound 2 2 nanomolar to 200 nanomolar, Compound 1 200 nanomolar and 2 micromolar; for CCL2 gene expression, fold change compared to no treatment (PBS) control: normalized to GAPDH, Compound 2 200 picomolar to 200 nanomolar, Compound 1 up to 2 micromolar
Description: FIG. 2. Compound 2 has unexpected biological activity in liver cells compared to H1BADP (Compound 1). Primary hepatocytes were isolated from fresh mouse livers of C57/b6 background. Cells were cultured in serum-free medium overnight before treatment with either Compound 1 or Compound 2 for 4 hours. Cells were harvested and mRNA expression analyzed by qPCR.
The reference compound, referred to herein also as “Compound 1” (HMP1BP) is an intermediate in the H1b-ADP biosynthetic pathway generated by the dephosphorylation of HBP (FIG. 1). Derivatives of Compound 1 were generated and their activities tested in primary mouse hepatocytes (C57/b6). […] Hepatocytes were first isolated from fresh C57/b6 mouse livers, transferred to serum-free medium, and cultured overnight before treatment with Compound 1 or Compound 2 for 4 hours. Liver cells were then harvested, the mRNA isolated and gene expression of C—C motif chemokine ligand 2 (CCL2) and C—C motif chemokine ligand 7 (CCL7) was analyzed by qPCR and presented as fold change compared to a no treatment (PBS) control. Gene expression was normalized to the expression of the housekeeping gene, glyceraldehyde-3-phosphate dehydrogenase (GAPDH). […] In this assay.

[2] = tested on: CCL2 and CCL7 gene expression in kidney, esophagus, liver, lung, brain, and stomach; experiment: CCL2 and CCL7 gene expression by qPCR in organs of mice after oral gavage; assay type: in vivo, mouse; settings: 4 hours
Description: FIG. 4. Compound 2 activates cytokine expression only in the liver. 8 week old C57 females were administrated Compound 2 by oral gavage in 200 ul of Saline and 1.5% DMSO as diluent. Four hours later, organs were dissected and gene expression of CCL2 and CCL7 was analyzed by qPCR in kidney, esophagus, liver, lung, brain, and stomach.
In this experiment, CCL7 was expressed more than 50-fold above the PBS control and CCL2 was expressed more than 20-fold above the control.

[3] = tested on: chemokine and cytokine expression in liver cells; experiment: Chemokine and cytokine gene expression by qPCR in liver of mice after oral gavage of HMP1BP derivatives; assay type: in vivo, mouse; settings: C57 female mice, 1 mg/kg oral gavage
Description: FIG. 5A-B. Oral administration of HMP1BP derivatives activates chemokine and cytokine expression in liver cells. 8 week old C57 female mice were administered saline or the indicated compounds by oral gavage, Compounds 2-7 (1 mg·kg) (A) or compounds 9, 10 (1 mg/kg), 11, 13 and 14 (0.1 mg/kg) (B) were tested. Four hours after administration of saline or compound, organs were dissected and gene expression was analyzed by qPCR for CCL2, CCL7, CXCL1, CXCL10, IFNb, IL1b, IL6, and TNFa (A) or CCL2 and CCL7 (B).
Several additional Compound 1 derivatives were tested for cytokine and chemokine gene induction in hepatocytes. […] Mice were treated as described above. Briefly, 8 week-old C57 female mice were separately administered (1 mg/kg) either one of Compounds 2-7 or a saline/DMSO control by oral gavage and 4 hours later the livers were dissected and gene expression analyzed by qPCR. The gene expression results were normalized to GADPH expression. […] The additional genes tested in this experiment are: CXCL1, encoding C—X—C motif chemokine ligand 1; CXCL10, encoding C—X—C motif chemokine ligand 10; IFNb, encoding interferon beta; IL-1b, encoding interleukin 1 beta; IL6, encoding interleukin 6; and TNFα, encoding tumor necrosis factor alpha. […] All the derivatives induced CCL2 and CCL7 more than 20-fold above the control. Compound 2 induced CCL2, CCL7, CXCL10, IFNb, IL6 and TNFα each more than 20-fold.

[4] = tested on: hepatitis B virus AAV8-1.3 HBV; experiment: AAV8-1.3 HBV mouse model: serum HBV DNA (qPCR), HBsAg and HBeAg (ELISA); assay type: in vivo; settings: male C57BL/6 mice, 1 mg/kg per dose, vs PBS
Description: FIG. 6A-C. Compound 2 reduces hepatitis infection in murine model. Compound 2 was administered (1 mg/kg PO QD) and serum levels of HBV (A), HbsAg (B), or HbeAg (C) were measured after 7 days.
On day 1, male C57BL/6 mice were intravenously (i.v) injected with hepatitis B virus AAV8-1.3 HBV (1×10^11 v/g) (Beijing Five Plus Molecular Medicine Institute). On day 56 post-injection, each mouse was treated with Compound 2 two times per week (1 mg/kg per dose) or PBS. After seven days of treatment (at day 63 post injection), mouse serum was collected for analysis by qPCR (HBV DNA) and ELISA for Hepatitis B virus surface antigen (HBsAg) and Hepatitis B e-antigen (HBeAg). […] Specifically, the Compound 1 derivatives show tissue-specific liver cell activity and strong induction of cytokine and chemokine genes while also reducing HBV DNA and antigen titers in the serum of infected mice.

ALPK1 = target: T1, ALPK1 (Mus musculus, UniProt Q9CXB8); experiment: Liver chemokine gene expression by qPCR in ALPK1 knockout and wildtype mice after oral treatment; assay type: in vivo; parameters: from tissue; host or cells: mouse liver (in vivo, wildtype vs ALPK1 knockout mice); settings: WT mice, oral 0.5 mg/kg, 4 hours, normalized to PBS treated WT mice
T1 sequence (Q9CXB8 1-1231): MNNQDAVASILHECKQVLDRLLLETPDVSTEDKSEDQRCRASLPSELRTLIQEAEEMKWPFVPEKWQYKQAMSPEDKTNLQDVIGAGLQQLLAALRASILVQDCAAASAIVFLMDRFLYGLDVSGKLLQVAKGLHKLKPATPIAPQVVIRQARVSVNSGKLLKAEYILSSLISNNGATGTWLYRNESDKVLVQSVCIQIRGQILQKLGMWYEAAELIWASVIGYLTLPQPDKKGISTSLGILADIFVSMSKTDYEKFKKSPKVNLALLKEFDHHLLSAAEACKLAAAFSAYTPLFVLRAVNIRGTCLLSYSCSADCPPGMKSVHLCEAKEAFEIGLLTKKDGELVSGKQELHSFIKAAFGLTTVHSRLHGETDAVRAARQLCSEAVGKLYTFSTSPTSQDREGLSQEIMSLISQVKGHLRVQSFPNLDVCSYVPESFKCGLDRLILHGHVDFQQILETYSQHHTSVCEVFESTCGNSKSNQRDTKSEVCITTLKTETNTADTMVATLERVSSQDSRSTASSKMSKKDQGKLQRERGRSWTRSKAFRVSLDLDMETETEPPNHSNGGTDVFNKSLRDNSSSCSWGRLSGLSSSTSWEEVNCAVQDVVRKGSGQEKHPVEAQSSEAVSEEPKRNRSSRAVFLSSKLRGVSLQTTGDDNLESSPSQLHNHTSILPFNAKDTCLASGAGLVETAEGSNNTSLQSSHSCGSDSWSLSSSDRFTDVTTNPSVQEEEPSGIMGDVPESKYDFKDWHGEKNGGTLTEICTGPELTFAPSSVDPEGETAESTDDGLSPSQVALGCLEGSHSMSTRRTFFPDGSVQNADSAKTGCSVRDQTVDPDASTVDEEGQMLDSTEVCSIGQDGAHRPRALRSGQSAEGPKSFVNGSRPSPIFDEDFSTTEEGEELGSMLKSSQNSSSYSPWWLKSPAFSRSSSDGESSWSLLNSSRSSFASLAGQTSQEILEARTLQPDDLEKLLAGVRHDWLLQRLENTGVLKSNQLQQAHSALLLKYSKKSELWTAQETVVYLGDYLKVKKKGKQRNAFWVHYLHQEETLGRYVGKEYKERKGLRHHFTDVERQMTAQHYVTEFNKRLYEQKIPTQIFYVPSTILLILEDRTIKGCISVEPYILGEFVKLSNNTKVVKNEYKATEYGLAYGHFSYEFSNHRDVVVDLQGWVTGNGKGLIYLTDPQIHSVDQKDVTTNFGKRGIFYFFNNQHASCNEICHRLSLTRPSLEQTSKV
Description: FIG. 3. Compound 2 induces chemokine and cytokine expression via ALPK1. ALPK1 knockout (KO) mice and wildtype (WT) control were treated orally with either PBS or Compound 2 (0.5 mg/kg). Four hours after treatment, livers were dissected for gene expression analysis by qPCR. Expression was normalized to PBS treated WT mice.
ALPK1 knockout (KO) mice and wildtype (WT) control were treated orally with either PBS or Compound 2 (0.5 mg/kg). Four hours after treatment, livers were dissected for gene expression analysis by qPCR. Expression was normalized to PBS treated WT mice.

[5] = liver, 8 week-old C57 female mice
[6] = after seven days of treatment, ELISA

SMILES | CCL2 gene expression at the highest concentration tested ([1]; 2 micromolar) | CCL7 gene expression, fold change compared to no treatment (PBS) control [1] | CCL2 gene expression, fold change compared to no treatment (PBS) control [1] | cytokine and chemokine gene expression in other organs ([2]; kidney, esophagus, lung, brain, stomach) | CCL2 gene expression above the control [2, 5] | CCL7 gene expression above the PBS control [2, 5] | CCL7 gene induction above the control ([3]; 4 hours (FIG. 5A)) | CXCL10 gene induction ([3]; 4 hours (FIG. 5A)) | IFNb gene induction ([3]; 4 hours (FIG. 5A)) | IL6 gene induction ([3]; 4 hours (FIG. 5A)) | TNFα gene induction ([3]; 4 hours (FIG. 5A)) | CCL2 gene induction above the control ([3]; 4 hours, normalized to GADPH (FIG. 5A)) | HBV DNA copy number in serum ([4]; after seven days of treatment (day 63 post injection), qPCR) | Hepatitis B e-antigen (HBeAg) in serum [4, 6] | Hepatitis B surface antigen (HBsAg) in serum [4, 6] | expression of CCL2, CCL3, CCL7, and CXCL1 in liver (ALPK1)
O=P(O)(O)O[C@@H]1O[C@H]([C@H](O)CO)[C@@H](O)[C@H](O)[C@@H]1O [Compound 1, (2S,3S,4S,5S,6R)-6-((R)-1,2-dihydroxyethyl)-3,4,5-trihydroxytetrahydro-2H-pyran-2-yl dihydrogen phosphate] | only similar to that induced by the lowest concentration (200 picomolar) of Compound 2 | only a much smaller induction in CCL7 gene expression | did not significantly induces CCL2 expression relative to the PBS control except at the highest concentration tested | – | – | – | – | – | – | – | – | – | – | – | – | –
CC(=O)OC[C@H](F)[C@H]1O[C@@H](OP(=O)(Oc2ccccc2)Oc2ccccc2)[C@@H](OC(C)=O)[C@@H](OC(C)=O)[C@@H]1OC(C)=O [Compound 2, (2S,3S,4S,5S,6S)-2-((S)-2-acetoxy-1-fluoroethyl)-6-((diphenoxyphosphoryl)oxy)tetrahydro-2H-pyran-3,4,5-triyl triacetate] | – | induced in a dose-dependent manner | significantly induced CCL2 expression in a dose-dependent manner | No other organ tissue analyzed showed cytokine and chemokine gene expression | more than 20 fold | more than 50 fold | more than 20 fold | more than 20 fold | more than 20 fold | more than 20 fold | more than 20 fold | more than 20 fold | significantly reduced HBV DNA copy number | decreased compared to the PBS control | decreased compared to the PBS control | induce the expression
CC(=O)OC[C@H](F)C1O[C@@H](OP(=O)(N[C@@H](C)C(=O)OC(C)C)Oc2ccccc2)C(OC(C)=O)[C@@H](OC(C)=O)[C@@H]1OC(C)=O (stereo partly drawn) [Compound 4, (2S,3S,4S,5S,6S)-2-((S)-2-acetoxy-1-fluoroethyl)-6-(((((S)-1-isopropoxy-1-oxopropan-2-yl)amino)(phenoxy)phosphoryl)oxy)tetra-hydro-2H-pyran-3,4,5-triyl triacetate] | – | – | – | – | – | – | – | – | strong inductive effect | – | – | – | – | – | – | –
